Test results taken from publication PMC8961538, “N-Acylated and N-Alkylated 2-Aminobenzothiazoles Are Novel Agents That Suppress the Generation of Prostaglandin E2” (Biomolecules, 2022).

Tests used:
[1] = system: rat-paw carrageenan-induced edema; assay: Rat-paw carrageenan-induced-edema assay; assay type: in vivo; conditions: for In vivo anti-inflammatory activity compared with indomethacin: 0.01 mmol/kg, same dose as indomethacin
Experimental: The anti-inflammatory activities of selected aminobenzothiazole derivatives were determined by employing the rat-paw carrageenan-induced-edema assay, as previously described. Only male animals (180–220 g body weight) were used. Each group was composed of five animals. The animals were divided into three five-membered groups, and all the tested compounds were suspended in water (0.01 mmol/mL/kg body weight), with a few drops of Tween 80, and ground in a mortar before being administered intraperitoneally simultaneously. After treatment with the tested compounds in group 1, a 2nd group was used as a positive control (indomethacin at 0.01 mmol/mL/kg body weight, i.p.), and another group (3rd) served as the control in which water was administered (negative control). The compounds were injected intraperitoneally at the same time as carrageenan was given by intradermal injection. The rats were euthanized 3.5 h post-injection. The weight of the uninjected with carrageenan paw was subtracted from the weight of the injected paw for each animal. The change in paw weight for the treated animals was compared to that for the control animals and expressed as the percent inhibition of edema. The values of CPE % are the means from three different experiments with standard errors of the mean less than 10%. The statistical significance of the results was established with Student’s t-test, for * p < 0.01 and ** p < 0.05. All the animal experiments performed in the manuscript were conducted in compliance with institutional guidelines. Our studies were in accordance with recognized guidelines on animal experimentation (guidelines for the care and use of laboratory animals published by the Greek Government 160/1991, based on EU regulations 86/609). The rats were kept in the Centre of the School of Veterinary Medicine (EL54 BIO42), Aristotle University of Thessaloniki, which is registered by the official state veterinary authorities (presidential degree 56/2013, in harmonization with the European Directive 2010/63/EEC). The experimental protocols were approved by the Animal Ethics Committee of the Prefecture of Central Macedonia (no. 270079/2500).

[2] = system: PGE2 generation in rat mesangial cells; assay: Suppression of IL-1β/forskolin-stimulated PGE2 generation in rat renal mesangial cells; assay type: cell-based; conditions: Rattus norvegicus, Mesangial cell, 24 h; for inhibition at 3 µM: 1 nM IL-1β plus 5 μM forskolin; for IC50: 0.1 to 3 µM, IL-1β plus forskolin, read-out: EC50 (μM), inhibition of PGE2 generation
Experimental: Rat renal mesangial cells (clone MZ B1), isolated and characterized as previously described, were cultivated in RPMI 1640 medium supplemented with 10% fetal bovine serum; 10 mM 4-(2-hydroxyethyl)-1-piperazineethanesulfonic acid (HEPES), pH 7.4; 6 µg/mL of bovine insulin; 5 µg/mL of transferrin; 5 nM sodium selenite; 100 units/mL of penicillin; and 100 µg/mL of streptomycin. The cells were incubated for 4 h in Dulbecco’s modified Eagle’s medium (DMEM) containing 10 mM HEPES, pH 7.4, and 0.1 mg/mL of fatty acid-free bovine serum albumin (BSA), prior to stimulation.
Confluent mesangial cells in 24-well plates were pretreated for 20 min with varying concentrations of inhibitors and then stimulated for 24 h in a total volume of 400 µL of DMEM containing 0.1 mg/mL of BSA, in the absence or presence of 1 nM interleukin 1β (IL-1) plus 5 μM forskolin (Fk). Thereafter, the supernatants were collected and centrifuged for 5 min at 1000× g. The PGE2 in the supernatant was quantified using an enzyme-linked immunoassay (Enzo Life Sciences, Lörrach, Germany) following the manufacturer’s recommendations.
Statistical analysis of the data was performed using one-way analysis of variance (ANOVA) followed by a Bonferroni’s post hoc test for multiple comparisons (GraphPad Prism 8.4.3., San Diego, CA, USA). The half maximal effective concentrations (EC50) of the inhibitors were calculated using the same software.

[3] = system: PGE2 generation in rat mesangial cells; conditions: cited from earlier work; for EC50: read-out: EC50, inhibition of PGE2 formation
[4] = system: PGE2 generation in CD4+ T cells; set-up: method as in PMID 25213337; conditions: cited from earlier work
[5] = system: allodynia after facial carrageenan injection; conditions: after facial carrageenan injection in mice; cited from earlier work
[6] = system: NO formation in cytokine-stimulated rat mesangial cells; assay: IL-1/Fk-stimulated nitrite (NO) formation in rat mesangial cells, Griess assay; assay type: cell-based; conditions: IL-1 plus Fk, 24 h; nitrite in supernatants
Experimental: Figure S1. Effect of the inhibitor 19a on IL-1/Fk-stimulated nitrite formation in rat mesangial
Cells were pretreated for 20 min with the indicated concentrations of 19a and then stimulated for
24 h in the absence (-) or presence (+) of 1 nM interleukin 1β (IL-1) plus 5 µM forskolin (Fk).
Nitrite was quantified in supernatants using Griess assay as previously described.1 Data are
presented as mM of nitrite and are means +/- S.D. (n = 3).
1β induction of nitric oxide synthase in renal mesangial cells. Eur. J. Pharmacol. 1993,
(1 picture or pasted object on this page, not shown here)

[7] = target: T1, human recombinant group VIA phospholipase A2 (GVIA iPLA2) (Homo sapiens, UniProt O60733); assay: Lipidomics-based mixed micelle PLA2 activity assay, GVIA iPLA2; assay type: biochemical; conditions: mole fraction of inhibitor in total substrate interface required to inhibit enzyme activity by 50%
T1 sequence (O60733 1-806): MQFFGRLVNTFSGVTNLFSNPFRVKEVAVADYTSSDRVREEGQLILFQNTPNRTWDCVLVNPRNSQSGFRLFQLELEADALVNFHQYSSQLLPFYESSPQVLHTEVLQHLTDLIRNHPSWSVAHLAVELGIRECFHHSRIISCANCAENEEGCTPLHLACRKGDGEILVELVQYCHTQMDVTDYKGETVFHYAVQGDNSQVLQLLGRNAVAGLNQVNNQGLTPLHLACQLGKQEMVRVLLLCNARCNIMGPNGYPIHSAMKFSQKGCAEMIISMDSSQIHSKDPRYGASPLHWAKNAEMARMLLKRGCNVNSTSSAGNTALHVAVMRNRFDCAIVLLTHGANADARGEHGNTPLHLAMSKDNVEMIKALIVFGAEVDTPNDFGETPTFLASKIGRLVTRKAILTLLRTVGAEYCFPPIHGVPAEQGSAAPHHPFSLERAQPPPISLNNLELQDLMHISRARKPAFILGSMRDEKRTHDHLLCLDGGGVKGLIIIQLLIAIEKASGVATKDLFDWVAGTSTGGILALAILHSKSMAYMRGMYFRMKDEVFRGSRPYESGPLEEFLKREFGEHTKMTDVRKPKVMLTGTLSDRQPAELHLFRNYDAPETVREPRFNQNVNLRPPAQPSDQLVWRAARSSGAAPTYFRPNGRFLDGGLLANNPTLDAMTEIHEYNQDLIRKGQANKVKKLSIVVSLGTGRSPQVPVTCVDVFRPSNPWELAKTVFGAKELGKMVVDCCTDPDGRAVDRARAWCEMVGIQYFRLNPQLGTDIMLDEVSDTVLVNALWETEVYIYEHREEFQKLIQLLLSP

spinal PGE2 release = system: spinal PGE2 release; set-up: method as in PMID 16203828; conditions: in vivo; cited from earlier work
GIVA cPLA2 = system: GIVA cPLA2; set-up: method as in PMID 16203828; conditions: in vitro; cited from earlier work
hyperalgesia = system: hyperalgesia; set-up: method as in PMID 16203828; conditions: in vivo; cited from earlier work
GVIA iPLA2 = system: GVIA iPLA2; set-up: method as in PMID 16203828; conditions: in vitro; cited from earlier work

For `O=C(CCc1ccc2ccccc2c1)Nc1nc2ccccc2s1` [Compound 5b, N-(Benzo[d]Thiazol-2-yl)-3-(Naphthalen-2-yl)Propanamide], the “In vivo anti-inflammatory activity compared with indomethacin” value [1] was “higher than that of indomethacin”, the “In vivo anti-inflammatory activity compared with indomethacin” value ([1]; listed as GK510) was “greater than that of indomethacin” and the melting point was 46 to 48 °C. It also gave an inhibition at 3 µM [2] of over 80% and an IC50 [2] of 0.173 µM.

For `O=C(CCCCc1ccc2ccccc2c1)c1nc2ccccc2o1` [Compound 2], the EC50 ([3]; rat mesangial cells) is listed as 790 nM.

In the case of `O=C(CCCCc1ccc2ccccc2c1)C(F)(F)F` [FKGK18, 1,1,1-trifluoro-6-(2-naphthalenyl)-2-hexanone], the “Inhibition of generation of PGE2” value [4] is listed as “inhibit the generation of PGE2”.

In the case of `O=C(CCCCc1ccc2ccccc2c1)c1nc2ccccc2s1` [Compound 1], the “% inhibition of PGE2 generation” value ([3]; comparison value for compound 1) is given as 85% and the EC50 ([3]; rat mesangial cells) is given as 710 nM.

In the case of `CCCCC/C=C\C/C=C\C/C=C\C/C=C\CCCC(=O)C(F)(F)F` [arachidonoyl trifluoromethyl ketone], the “Inhibition of cytokine-stimulated generation of PGE2” value ([3]; rat mesangial cells) is given as “inhibits” and the Effect on allodynia [5] is given as “modulates allodynia”.

In the case of `c1ccc2cc(CCCNc3nc4ccccc4s3)ccc2c1` [Compound 19a, N-(3-(Naphthalen-2-yl)Propyl)Benzo[d]Thiazol-2-Amine], the “In vivo anti-inflammatory activity compared with indomethacin” value [1] is reported as “higher than that of indomethacin”, the “In vivo anti-inflammatory activity compared with indomethacin” value ([1]; listed as GK543) is reported as “greater than that of indomethacin” and the melting point is reported as 112 to 114 °C. The “Effect on NO production” value [6] was “No effect”, the inhibition at 3 µM [2] was over 80% and the IC50 [2] was 0.118 µM. The “XI(50) for GVIA iPLA2” value [7] was 0.03 mole fraction.

For `CCCCCCCCCCCCCCC(=O)C(=O)NCCCC(=O)OCC` [AX048, ethyl 4-(2-oxohexadecanamido)butanoate], the “Inhibition of spinal PGE2 release” value (spinal PGE2 release) is listed as “inhibits spinal PGE2 release”, the “XI(50) for GIVA cPLA2” value (GIVA cPLA2) is listed as 0.022 mole fraction and the Anti-hyperalgesic activity (hyperalgesia) is listed as “anti-hyperalgesic activity”. For the same compound, the “XI(50) for GVIA iPLA2” value (GVIA iPLA2) was 0.027 mole fraction.

For `COc1ccc2c(c1)c(CC(=O)O)c(C)n2C(=O)c1ccc(Cl)cc1` [Indomethacin, reference compound], the “% Reduction of Rat-Paw Edema” value ([1]; 0.01 mmol/kg i.p., given with carrageenan, 3.5 h post-injection) was 37.3%.
